Source: US11219625B2, “Inhibitors of N-linked glycosylation and methods using same” (YALE UNIVERSITY, priority 2015, dated 2022)

Experiments:
[1] = Celltiter Glo viability assay, HepG2; assay type: cell-based; conditions: human, HepG2 cells; HEPG2, 72 h of compound exposure; read-out: Cytotoxicity Assay Mean EC50
Text: (§1) The HTS approach using the bioluminescent N-linked glycosylation reporter (CCR 2011) in D54-ERLucT and D54-LucT cells has been previously described (Bennett, et al., Transl Oncol 2013, 6, 382-391). Briefly, the primary cell-based screen detects site occupancy of NLG sequons using a modified luciferase protein translated into the ER. […] The methodology for the primary (D54-ERlucT), secondary (D54-LucT), and tertiary (luciferase inhibition) screens as well and toxicity assays with CelltitreGlo are deposited in Pubchem (AID 588693).
(§2) To better understand the connection between structure and activity, analogs were prepared and tested in the D54-ERLucT cell based assay for inhibition of N-linked glycosylation (FIG. 1B). The assay was used to estimate and compare AC40 values among analogs and to guide the design of improved compounds that inhibited N-linked glycosylation. This effort generated 36 unique compounds with modifications to the amine component of the sulfonamide functionality (red), the pyrrolidine moiety (blue) or the methylaminothiazole group (green). Generally, incorporation of larger sulfonamides (i.e., larger secondary amines appended to the sulphone) was not well tolerated, resulting in erosion of potency (7 analogs). However, steric interactions could be mitigated by the introduction of a hydrogen bond accepting oxygen in a larger cyclic amine. Thus, morpholine was determined to be an acceptable surrogate for the dimethylamine component of the sulfonamide (FIGS. 1A-1D). The pyrrolidine group (blue) was replaced with various alkyl, cycloalkyl, and amine groups (7 compounds). The aminothiazole moiety was derivatized most extensively of all three regions (green highlighted area, 22 analogs). […] Analogs with the highest potency in the luciferase assay were retested with western blot analysis to insure that measurements of luciferase activation corresponded to loss of N-linked glycosylation.

HepG2 cells = test: Celltiter Glo viability assay, HepG2; assay type: cell-based; conditions: HEPG2 EC50 over NLG AC40
Text: as §1, §2

N-linked glycosylation = test: D54-ERLucT cell based luciferase assay for inhibition of N-linked glycosylation; conditions: D54-ERLucT cells, luciferase activation
Text: as §1
The primary screen was developed in the D54 glioma cell line using a modified P. pyralis luciferase gene (ER-LucT) that is ER translated and glycosylated at three N-linked glycosylation consensus sequences. Glycosylation of the reporter inactivates luciferase enzymatic activity providing a robust methodology to detect inhibition of this process. D54 cells expressing a non-ER translated luciferase (LucT) insensitive to inhibition of N-linked glycoysation were used as a secondary screen for false positives. The primary screen was performed in duplicate and values were normalized to the average of positive control wells (Tunicamycin) minus averaged neutral vehicle treated wells per run. Compounds with replicate activity greater than three standard deviations above the mean average of control wells were selected for further study. A subset of 1,845 compounds met this criterion, and were advanced to simultaneous retesting in both the primary screen and a secondary (false positive) cell-based screen. […] Compounds were further triaged from consideration by consulting the Pubchem bioassay database and deprioritizing compounds showing a promiscuity rate higher than 5% across assays or by removing PAINS scaffolds (Baell, et al., J Med Chem 2010, 53, 2719-2740). Remaining compounds were assessed by medicinal chemistry review to score synthetic tractability and known issues with instability, poor solubility, or toxicity. This analysis yielded 39 compounds that were tested in a cell-free assay to detect luciferase inhibitors (Auld, et al., Proc Natl Acad Sci USA 2010, 107, 4878-4883) and by western blot analysis to detect gel mobility changes of the luciferase reporter, consistent with inhibition of N-linked glycosylation. This approach identified one aminobenzamidosulfonamide compound that blocked N-linked glycosylation.
as §2

HEK293 cells = test: Celltiter Glo viability assay, HEK293; assay type: cell-based; conditions: HEK293 EC50 over NLG AC40
Text: as §1, §2

[2] = Celltiter Glo viability assay, HEK293; assay type: cell-based; conditions: human, HEK293 cells; HEK293, 72 h of compound exposure; read-out: Cytotoxicity Assay Mean EC50
Text: as §1, §2

| Selectivity (EC50/AC40) (HepG2 cells) | SMILES | EC50 at 72 h [1] | NLG Inhibition ASSAY Potency Mean AC40 (N-linked glycosylation) | NLG Inhibition max act, % (N-linked glycosylation) | Selectivity (EC50/AC40) (HEK293 cells) | EC50 at 72 h [2] |
| --- | --- | --- | --- | --- | --- | --- |
| >2.3 | COc1ccc2nc(NC(=O)c3cc(S(=O)(=O)N(C)C)ccc3N3CCCC3)sc2c1 [Entry 9, 5-(dimethylsulfamoyl)-N-(6-methoxy-1,3-benzothiazol-2-yl)-2-pyrrolidin-1-ylbenzamide] | > 30 µM | 13.1 µM | 85.7% | >2.3 | > 30 µM |
| – | CN(C)S(=O)(=O)c1ccc(N2CCCC2)c(C(=O)Nc2ccc(Br)cc2)c1 [Entry 20, 5-(dimethylsulfamoyl)-N-(4-bromophenyl)-2-pyrrolidin-1-ylbenzamide] | > 30 µM | – | 32% | – | > 30 µM |
| >27.8 | CN(C)S(=O)(=O)c1ccc(N2CCCC2)c(C(=O)Nc2ccccc2)c1 [Entry 12, 5-(dimethylsulfamoyl)-N-phenyl-2-pyrrolidin-1-ylbenzamide] | > 30 µM | 1.1 µM | 183.0% | >27.8 | > 30 µM |
| – | CN(C)S(=O)(=O)c1ccc(N2CCCC2)c(C(=O)Nc2ccncc2)c1 [Entry 11, 5-(dimethylsulfamoyl)-N-pyridin-4-yl-2-pyrrolidin-1-ylbenzamide] | > 30 µM | – | 25% | – | > 30 µM |
| – | CN(C)C(=O)c1cc(S(=O)(=O)N(C)C)ccc1N1CCCC1 [Entry 23, 5-(dimethylsulfamoyl)-N,N-dimethyl-2-pyrrolidin-1-ylbenzamide] | > 30 µM | – | 32.1% | – | > 30 µM |
| – | Cc1ccccc1NC(=O)c1cc(S(=O)(=O)N(C)C)ccc1N1CCCC1 [Entry 13, 5-(dimethylsulfamoyl)-N-(2-methylphenyl)-2-pyrrolidin-1-ylbenzamide] | > 30 µM | – | 10.7% | – | > 30 µM |
| >2.9 | COc1ccc(NC(=O)c2cc(S(=O)(=O)N(C)C)ccc2N2CCCC2)cc1 [Entry 16, 5-(dimethylsulfamoyl)-N-(4-methoxyphenyl)-2-pyrrolidin-1-ylbenzamide] | > 30 µM | 10.3 µM | 79.9% | >2.9 | > 30 µM |
| >11.5 | CN(C)S(=O)(=O)c1ccc(N2CCCC2)c(C(=O)Nc2cccc(F)c2)c1 [Entry 18, 5-(dimethylsulfamoyl)-N-(3-fluorophenyl)-2-pyrrolidin-1-ylbenzamide] | > 30 µM | 2.6 µM | 107.7% | >11.5 | > 30 µM |
| – | CN(C)S(=O)(=O)c1ccc(N2CCCC2)c(C(=O)Nc2ccccc2Cl)c1 [Entry 19, 5-(dimethylsulfamoyl)-N-(2-chlorophenyl)-2-pyrrolidin-1-ylbenzamide] | > 30 µM | – | 24.7% | – | > 30 µM |
| – | CN(C)S(=O)(=O)c1ccc(N2CCCC2)c(C(=O)NC2CCCCC2)c1 [Entry 22, N-cyclohexyl-5-(dimethylsulfamoyl)-2-pyrrolidin-1-ylbenzamide] | > 30 µM | – | – | – | > 30 µM |
| – | CN(C)S(=O)(=O)c1ccc(N2CCCC2)c(C(=O)Nc2ccccc2F)c1 [Entry 17, 5-(dimethylsulfamoyl)-N-(2-fluorophenyl)-2-pyrrolidin-1-ylbenzamide] | > 30 µM | – | – | – | > 30 µM |
| >25.0 | Cc1ccc(NC(=O)c2cc(S(=O)(=O)N(C)C)ccc2N2CCCC2)cc1 [Entry 14, 5-(dimethylsulfamoyl)-N-(4-methylphenyl)-2-pyrrolidin-1-ylbenzamide] | > 30 µM | 1.2 µM | 305.0% | >25.0 | > 30 µM |
| – | CN(C)S(=O)(=O)c1ccc(N2CCCC2)c(C(=O)Nc2cccnc2)c1 [Entry 10, 5-(dimethylsulfamoyl)-N-pyridin-3-yl-2-pyrrolidin-1-ylbenzamide] | > 30 µM | – | 48.4% | – | > 30 µM |
| – | COc1ccccc1NC(=O)c1cc(S(=O)(=O)N(C)C)ccc1N1CCCC1 [Entry 15, 5-(dimethylsulfamoyl)-N-(2-methoxyphenyl)-2-pyrrolidin-1-ylbenzamide] | > 30 µM | – | 30.1% | – | > 30 µM |
| – | CN(C)S(=O)(=O)c1ccc(N2CCCC2)c(C(=O)N2CCOCC2)c1 [Entry 21, N,N-Dimethyl-3-(morpholine-4-carbonyl)-4-(pyrrolidin-1-yl)benzenesulfonamide] | > 30 µM | – | 23.6% | – | > 30 µM |
